Results published in ChEMBL document CHEMBL4138253, “Synthesis and Biological Evaluation of a Series of Bile Acid Derivatives as FXR Agonists for Treatment of NASH” (ACS Med Chem Lett, 2017).
Values belong to the molecule of their own block, whether it stands above or below them.

Tests used:
[1] = molecular target: T1, Bile acid receptor (Homo sapiens) (UniProt Q96RI1); assay: (§1) Agonist activity at human FXR assessed as recruitment of SRC1 peptide by TR-FRET assay
T1 sequence (whole entry): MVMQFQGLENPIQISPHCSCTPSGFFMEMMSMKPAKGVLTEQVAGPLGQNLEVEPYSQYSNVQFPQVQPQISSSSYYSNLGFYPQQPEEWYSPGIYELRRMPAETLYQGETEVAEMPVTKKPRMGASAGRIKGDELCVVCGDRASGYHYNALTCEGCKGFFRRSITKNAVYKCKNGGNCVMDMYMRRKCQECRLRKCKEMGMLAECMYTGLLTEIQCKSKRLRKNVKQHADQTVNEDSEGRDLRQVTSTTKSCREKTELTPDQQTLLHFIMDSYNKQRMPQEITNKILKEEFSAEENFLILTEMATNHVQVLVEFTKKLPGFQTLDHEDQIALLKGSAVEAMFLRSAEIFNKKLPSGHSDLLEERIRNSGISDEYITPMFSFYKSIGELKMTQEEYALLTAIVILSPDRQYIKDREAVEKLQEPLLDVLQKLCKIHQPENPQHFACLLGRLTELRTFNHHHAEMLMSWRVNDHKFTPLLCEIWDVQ

Bile acid receptor [2] = molecular target: T2, Bile acid receptor (Homo sapiens, UniProt Q96RI1); assay: as §1
T2 sequence (Q96RI1 whole entry): T1 sequence (whole entry)

[3] = Ratio of drug level in liver to plasma in C57BL/6 mouse at 2 mg/kg, po administered as single cassette dose via gavage measured at 3 hrs post dose; type: ADME, organism-based
[4] = molecular target: T1, Bile acid receptor (Homo sapiens); assay: Agonist activity at recombinant human GST-tagged FXR LBD (193 to 472 residues) expressed in baculovirus-infected insect cells assessed as recruitment of biotinylated SRC1 peptide measured after 1 hr by Alphascreen assay relative to CDCA
Homo sapiens = species: Homo sapiens; assay: Selectivity ratio of EC50 for recombinant human GST-tagged FXR LBD (193 to 472 residues) expressed in baculovirus-infected insect cells to EC50 for human TGR5 expressed in HEK293 cells
[5] = Drug level in C57BL/6 mouse liver at 2 mg/kg, po administered as single cassette dose via gavage measured at 3 hrs post dose by LC-MS/MS analysis; type: ADME, organism-based; details: in vivo
[6] = molecular target: T3, G-protein coupled bile acid receptor 1 (Homo sapiens, UniProt Q8TDU6); assay: Agonist activity at human TGR5 expressed in HEK293 cells assessed as increase in intracellular cAMP level after 1 hr by TR-FRET assay; type: functional, cell-based
T3 sequence (Q8TDU6 whole entry): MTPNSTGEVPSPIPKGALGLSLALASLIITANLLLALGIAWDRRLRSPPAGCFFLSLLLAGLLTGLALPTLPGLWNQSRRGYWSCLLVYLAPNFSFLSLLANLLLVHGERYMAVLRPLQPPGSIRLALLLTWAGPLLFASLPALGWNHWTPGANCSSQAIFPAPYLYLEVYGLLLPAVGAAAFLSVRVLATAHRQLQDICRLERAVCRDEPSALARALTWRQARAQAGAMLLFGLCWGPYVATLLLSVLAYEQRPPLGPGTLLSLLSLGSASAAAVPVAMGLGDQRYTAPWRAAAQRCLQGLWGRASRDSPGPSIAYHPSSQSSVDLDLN

[7] = Drug level in C57BL/6 mouse plasma at 2 mg/kg, po administered as single dose via gavage measured at 0.5 hrs post dose by LC-MS/MS analysis; type: ADME, organism-based
[8] = Drug level in C57BL/6 mouse plasma at 2 mg/kg, po administered as single cassette dose via gavage measured at 3 hrs post dose by LC-MS/MS analysis; type: ADME, organism-based
[9] = Ratio of drug level in liver to plasma in C57BL/6 mouse at 2 mg/kg, po administered as single cassette dose via gavage measured at 0.5 hrs post dose; type: ADME, organism-based
[10] = Drug level in C57BL/6 mouse liver at 2 mg/kg, po administered as single cassette dose via gavage measured at 0.5 hrs post dose by LC-MS/MS analysis; type: ADME, organism-based; details: in vivo
Bile acid receptor [11] = molecular target: T2, Bile acid receptor; assay: Agonist activity at recombinant human GST-tagged FXR LBD (193 to 472 residues) expressed in baculovirus-infected insect cells assessed as recruitment of biotinylated SRC1 peptide measured after 1 hr by Alphascreen assay
[12] = Drug level in C57BL/6 mouse liver at 10 mg/kg, po administered as single dose via gavage measured at 0.5 hrs post dose by LC-MS/MS analysis; type: ADME, organism-based; details: in vivo
Mus musculus [13] = assay: Cmax in C57BL/6 mouse assessed as tauro-INT-747 level at 10 mg/kg, po administered via gavage; type: ADME, organism-based; design: dose 10 mg/kg, route oral; details: in vivo
[14] = Drug level in C57BL/6 mouse plasma at 10 mg/kg, po administered as single dose via gavage measured at 0.5 hrs post dose by LC-MS/MS analysis; type: ADME, organism-based
Mus musculus [15] = assay: Anti-hepatic steatosis activity in HFD/CCl4-induced non-alcoholic hepatic steatosis C57BL/6 mouse model assessed as reduction in triglyceride level at 30 mg/kg, po administered once daily via gavage for 28 days measured at post last dose by […] assay; type: ADME, organism-based; details: in vivo, 672 h
[16] = Cmax in C57BL/6 mouse at 10 mg/kg, po administered via gavage; type: ADME, organism-based; design: dose 10 mg/kg, route oral; details: in vivo
[17] = Tmax in C57BL/6 mouse at 10 mg/kg, po administered via gavage; type: ADME, organism-based; details: in vivo
Mus musculus [18] = assay: AUC in C57BL/6 mouse assessed as tauro-INT-747 level at 10 mg/kg, po administered via gavage; type: ADME, organism-based; details: in vivo
Mus musculus [19] = assay: Tmax in C57BL/6 mouse assessed as tauro-INT-747 level at 10 mg/kg, po administered via gavage; type: ADME, organism-based; details: in vivo
Mus musculus [20] = assay: AUC in C57BL/6 mouse assessed as glyco-INT-747 level at 10 mg/kg, po administered via gavage; type: ADME, organism-based; details: in vivo, BLD = below limit of detection
[21] = AUC in C57BL/6 mouse at 10 mg/kg, po administered via gavage; type: ADME, organism-based; details: in vivo
Mus musculus [22] = assay: Anti-hepatic steatosis activity in HFD/CCl4-induced non-alcoholic hepatic steatosis C57BL/6 mouse model assessed as reduction in hepatic steatosis score at 30 mg/kg, po administered once daily via gavage for 28 days measured at post last dose by hematoxylin-eosin staining based assay; type: ADME, organism-based; details: in vivo, 672 h
[23] = Drug level in C57BL/6 mouse liver at 10 mg/kg, po administered as single dose via gavage measured at 3 hrs post dose by LC-MS/MS analysis; type: ADME, organism-based; details: in vivo
Mus musculus [24] = assay: Anti-hepatic steatosis activity in HFD/CCl4-induced non-alcoholic hepatic steatosis C57BL/6 mouse model assessed as reduction in liver fibrosis at 30 mg/kg, po administered once daily via gavage for 28 days measured at post last dose by sirus red staining based assay; type: ADME, organism-based; details: in vivo, 672 h
Mus musculus [25] = assay: Cmax in C57BL/6 mouse assessed as glyco-INT-747 level at 10 mg/kg, po administered via gavage; type: ADME, organism-based; design: dose 10 mg/kg, route oral; details: in vivo, BLD = below limit of detection
[26] = Drug level in C57BL/6 mouse plasma at 10 mg/kg, po administered as single dose via gavage measured at 3 hrs post dose by LC-MS/MS analysis; type: ADME, organism-based

Efficacy [1]: 111%
EC50 (Bile acid receptor [2]): 1220 nM
Structure (SMILES): C[C@H](CCn1oc(=O)[nH]c1=O)[C@H]1CC[C@H]2[C@@H]3[C@H](O)C[C@@H]4C[C@H](O)CC[C@]4(C)[C@H]3CC[C@]12C

Kp at 3 h [3]: 36
Efficacy [4]: 109%
Drug uptake [5]: 1363 nmol/kg
EC50 [6]: 240 nM
concentration at 0.5 h [7]: 21 nM
concentration at 3 h [8]: 38 nM
Kp at 0.5 h [9]: 13
Drug uptake [10]: 277 nmol/kg
EC50 (Bile acid receptor [11]): 20 nM
Structure (SMILES): CC[C@H]1[C@@H](O)[C@@H]2[C@H](CC[C@]3(C)[C@@H]([C@H](C)CCNC(=O)C(=O)O)CC[C@@H]23)[C@@]2(C)CC[C@@H](O)C[C@@H]12
Ratio EC50 (Homo sapiens): 12

Structure (SMILES): CC[C@H]1[C@@H](O)[C@@H]2[C@H](CC[C@]3(C)[C@@H]([C@H](C)CCC(=O)O)CC[C@@H]23)[C@@]2(C)CC[C@@H](O)C[C@@H]12 [OBETICHOLIC ACID]
Drug uptake [12]: 1723 nmol/kg
Cmax (Mus musculus [13]): 838 nM
concentration at 0.5 h [14]: 478 nM
Activity (Mus musculus [15]): Active
Cmax [16]: 1540 nM
Tmax [17]: 15 min
AUC (Mus musculus [18]): 18.059 µM·h
Drug uptake [5]: 625 nmol/kg
Tmax (Mus musculus [19]): 480 min
AUC (Mus musculus [20]): Bld
AUC [21]: 0.713 µM·h
Activity (Mus musculus [22]): Active
concentration at 0.5 h [7]: 151 nM
Drug uptake [23]: 111 nmol/kg
Activity (Mus musculus [24]): Active
concentration at 3 h [8]: 64 nM
Cmax (Mus musculus [25]): Bld
Drug uptake [10]: 711 nmol/kg
concentration at 3 h [26]: 10 nM
